# In patent US20260053861A1, “CELL COMPOSITIONS AND METHODS OF USING THE SAME” (THE REGENTS OF THE UNIVERSITY OF CALIFORNIA, priority 2022, published 2026):
# Where a name gives a salt, the structure may show the parent alone. Read-outs that look alike come from different tables or passages of the source. Residues, ends and D or L forms follow the SMILES beside them.
# Tested on: hPSC-SCs
# [1] = HTS viability of hPSC-SCs in the presence of 30 mM glucose, Prestwick library, Table S4
Molecule,z.score.t [1],z.score.t
NC[C@H]1O[C@H](O[C@H]2[C@H](O)[C@@H](O[C@H]3O[C@H](CO)[C@@H](O)[C@H](N)[C@H]3O)[C@H](N)C[C@@H]2N)[C@H](N)C[C@@H]1O [Tobramycin],−0.3936,
CC(CCc1ccccc1)NCC(O)c1ccc(O)c(C(N)=O)c1 (stereo not drawn) [Labetalol hydrochloride],0.7665,
"CC[C@H](C)[C@H](N)C1=N[C@H](C(=O)N[C@@H](CC(C)C)C(=O)N[C@H](CCC(=O)O)C(=O)N[C@H](C(=O)N[C@H]2CCCCNC(=O)[C@H](CC(N)=O)NC(=O)[C@@H](CC(=O)O)NC(=O)[C@H](Cc3cnc[nH]3)NC(=O)[C@@H](Cc3ccccc3)NC(=O)[C@H]([C@@H](C)CC)NC(=O)[C@@H](CCCN)NC2=O)[C@@H](C)CC)CS1 [Bacitracin] (HELM PEPTIDE1{[CC[C@H](C)[C@H](N)C1=N[C@H](C(=O)[*:2])CS1].L.[dE].I.K.[NCCC[C@@H](N[*:1])C(=O)[*:2]].I.[dF].H.[dD].N}$PEPTIDE1,PEPTIDE1,5:R3-11:R2$$$V2.0)",1.163,
CCCCOc1cc(C(=O)OCCN(CC)CC)ccc1N [Benoxinate hydrochloride],0.05523,
CCC(C)(C)C(=O)O[C@H]1C[C@@H](C)C=C2C=C[C@H](C)[C@H](CC[C@@H]3C[C@@H](O)CC(=O)O3)[C@H]21 [Simvastatin],−0.9395,
CN1CCc2cc3c(cc2C1O)OCO3 (stereo not drawn) [Hydrastinine hydrochloride],1.785,
CO[C@H](C)[C@](O)(C(=O)OCC1=CCN2CC[C@H](O)[C@@H]12)C(C)C [Heliotrine],,−0.3023
CNC[C@H](O)[C@@H](O)[C@H](O)[C@H](O)CO [Meglumine],−0.9741,
C=CCN1CC[C@]23c4c5ccc(O)c4O[C@H]2C(=O)CC[C@@]3(O)[C@H]1C5 [Naloxone hydrochloride],0.84,
Cc1cccc(N(C)C(=S)Oc2ccc3ccccc3c2)c1 [Tolnaftate],0.378,
CCC1(c2cccc(O)c2)CCCCN(C)C1 (stereo not drawn) [Meptazinol hydrochloride],,0.01078
COc1cc(CNC(=O)CCCC/C=C/C(C)C)ccc1O [Capsaicin],0.03421,
COc1ccc2[nH]c([S+]([O-])Cc3ncc(C)c(OC)c3C)nc2c1 (stereo not drawn) [Omeprazole],0.1344,
Cc1cc2cc3c(C)cc(=O)oc3c(C)c2o1 [Trioxsalen],−0.1913,
CO/N=C(\C(=O)N[C@@H]1C(=O)N2C(C(=O)O)=C(COC(N)=O)CS[C@H]12)c1ccco1 [Cefuroxime sodium salt],−0.8132,
CCn1nc(C(=O)O)c(=O)c2cc3c(cc21)OCO3 [Cinoxacin],0.9525,
Cc1ccnc(NS(=O)(=O)c2ccc(N)cc2)n1 [Sulfamerazine],0.3022,
Verteporfin,−1.551,
"C[C@H]1C[C@@H]2[C@H]([C@@H](O)C[C@@]3(C)[C@H]2CC[C@]3(O)C(=O)CO)[C@@]2(C)C=CC(=O)C=C12 [Methylprednisolone, 6-alpha]",0.7665,
Spiramycin,0.7158,
CCOC(=O)[C@H](CCc1ccccc1)N[C@@H](C)C(=O)N1[C@H](C(=O)O)C[C@@H]2CCC[C@@H]21 [Ramipril],−0.5351,
CC(CCc1ccc(O)cc1)NCCc1ccc(O)c(O)c1 (stereo not drawn) [Dobutamine hydrochloride],−0.3731,
CS(=O)(=O)c1ccc([C@@H](O)[C@@H](CO)NC(=O)C(Cl)Cl)cc1 [Thiamphenicol],1.099,
Cn1cc[nH]c1=S [Methimazole],−0.05622,

Molecule,z.score.t [1],z.score.t
CCOC(=O)C1=C[C@]2(CC)CCCN3CCc4c(n1c1ccccc41)[C@@H]32 [Vinpocetine],0.6517,
CC(Oc1ccccc1)C(=O)N[C@@H]1C(=O)N2[C@@H]1SC(C)(C)[C@@H]2C(=O)O (stereo partly drawn) [Phenethicillin potassium salt],0.7158,
COC(=O)[C@@H]1[C@H]2C[C@H]3c4[nH]c5ccccc5c4CCN3C[C@@H]2CC[C@@H]1O [Yohimbine hydrochloride],0.6763,
C[N+]1(C)[C@@H]2CC[C@H]1C[C@@H](OC(=O)C(CO)c1ccccc1)C2 (stereo partly drawn) [Methylatropine nitrate],1.238,
CNCCC(Oc1ccccc1OC)c1ccccc1 (stereo not drawn) [Nisoxetine hydrochloride],,0.4318
NS(=O)(=O)c1cc(C(=O)O)c(NCc2ccco2)cc1Cl [Furosemide],−1.306,
C[C@]12C=CC(=O)C=C1CC[C@H]1[C@@H]3C[C@@H](O)[C@](O)(C(=O)CO)[C@@]3(C)C[C@H](O)[C@@]12F [Triamcinolone],2.024,
CC(C(=O)O)c1ccc(N2Cc3ccccc3C2=O)cc1 (stereo not drawn) [Indoprofen],0.1916,
CC(C)/N=c1\cc2n(-c3ccc(Cl)cc3)c3ccccc3nc-2cc1Nc1ccc(Cl)cc1 [Clofazimine],−1.765,
"Cc1cn([C@H]2C[C@H](N=[N+]=[N-])[C@@H](CO)O2)c(=O)[nH]c1=O [Zidovudine, AZT]",−0.8478,
Viomycin sulfate,,−0.2329
COc1ccc(OC)c(C(O)C(C)N)c1 (stereo not drawn) [Methoxamine hydrochloride],1.064,
NC(=O)c1cc[n+](CC2=C(C(=O)[O-])N3C(=O)[C@@H](NC(=O)Cc4cccs4)[C@H]3SC2)cc1 [Cefalonium],−0.3867,
CC(=O)CC(c1ccc([N+](=O)[O-])cc1)c1c(O)c2ccccc2oc1=O (stereo not drawn) [Acenocoumarol],−0.2425,
O=C(CCNNC(=O)c1ccncc1)NCc1ccccc1 [Nialamide],−0.7018,
CN(C)CCCN1c2ccccc2Sc2ccc(Cl)cc21 [Chlorpromazine hydrochloride],−1.622,
CC(=O)N(O)CCCCCNC(=O)CCC(=O)N(O)CCCCCNC(=O)CCC(=O)N(O)CCCCCN [Deferoxamine mesylate],,0.557
"C[C@](N)(Cc1ccc(O)c(O)c1)C(=O)O [Methyldopa (L, −)]",0.006455,
CCCCC(CC)CNC(=N)NC(=N)NCCCCCCNC(=N)NC(=N)NCC(CC)CCCC (stereo not drawn) [Alexidine dihydrochloride],−1.733,
COC(=O)[C@H]1[C@H]2C[C@@H]3c4[nH]c5cc(OC)ccc5c4CCN3C[C@H]2C[C@@H](OC(=O)/C=C/c2cc(OC)c(OC)c(OC)c2)[C@@H]1OC [Rescinnamin],0.006455,
CO[C@H]1/C=C/O[C@@]2(C)Oc3c(C)c(O)c4c(O)c(c(/C=N/N5CCN(C)CC5)c(O)c4c3C2=O)NC(=O)/C(C)=C\C=C\[C@H](C)[C@H](O)[C@@H](C)[C@@H](O)[C@@H](C)[C@H](OC(C)=O)[C@@H]1C [Rifampicin],1.139,
"CCCCNC(=O)NS(=O)(=O)c1ccc(C)cc1 [tolbutamide, Tolbutamide, reference compound]",2.089,
CC#C[C@]1(O)CC[C@H]2[C@@H]3CCC4=CC(=O)CCC4=C3[C@@H](c3ccc(N(C)C)cc3)C[C@@]21C [Mifepristone],−0.8392,
C[C@]12CC[C@H](O)C[C@H]1CC[C@@H]1[C@@H]2C[C@@H](O)[C@]2(C)[C@@H](C3=CC(=O)OC3)CC[C@]12O [Digoxigenin],−2.387,

Molecule,z.score.t [1],z.score.t
CC(=O)N[C@@H](CC(C)C)C(=O)O [N-Acetyl-L-leucine],0.2361,
CCc1c(C)[nH]c2c1C(=O)C(CN1CCOCC1)CC2 (stereo not drawn) [Molindone hydrochloride],−0.1759,
Iobenguane sulfate,0.3845,
COc1cc(NS(=O)(=O)c2ccc(N)cc2)nc(OC)n1 [Sulfadimethoxine],0.1469,
CNC1(C)C2CCC(C2)C1(C)C (stereo not drawn) [Mecamylamine hydrochloride],0.3097,
CC(=O)[N-]S(=O)(=O)c1ccc(N)cc1.O.[Na+] [Sulfacetamide sodic hydrate],−0.2865,
"CN1CCc2c(c3ccccc3n2Cc2ccccc2)C1.O=S(=O)(O)c1cccc2c(S(=O)(=O)O)cccc12 [Mebhydroline 1,5-naphtalenedisulfonate]",0.7312,
CC[N+](CC)(CC)CCC(O)(c1ccccc1)C1CCCCC1.[Cl-] (stereo not drawn) [Tridihexethyl chloride],−1.558,
CNC(=O)c1c(I)c(C(=O)NCC(=O)Nc2c(I)c(C(=O)O)c(I)c(C(=O)NCCO)c2I)c(I)c(N(C)C(C)=O)c1I [Ioxaglic acid],1.475,
O=c1n(CCCN2CCN(c3cccc(Cl)c3)CC2)nc2ccccn12 [Trazodone hydrochloride],0.4346,
CO[C@@]1(NC(=O)Cc2cccs2)C(=O)N2C(C(=O)O)=C(COC(N)=O)CS[C@@H]21 [Cefoxitin sodium salt],0.6964,
CC(C(=O)O)c1ccc(C(=O)c2cccs2)cc1 (stereo not drawn) [Suprofen],0.2361,
CN(C)CCCN1c2ccccc2Sc2ccc(C(F)(F)F)cc21 [Triflupromazine hydrochloride],−1.512,
Clc1ccc(C(Cn2ccnc2)OCc2csc3c(Cl)cccc23)c(Cl)c1 (stereo not drawn) [Sertaconazole nitrate],−1.558,
CN(C)CCOC(c1ccccc1)c1ccccc1.Cn1c(=O)c2[nH]c(Cl)nc2n(C)c1=O [Dimenhydrinate],0.08508,
Cc1cc(C2CCCCC2)n(O)c(=O)c1.NCCO [Ciclopirox ethanolamine],−1.422,
O=c1ccc2cc(O)c(O)cc2o1 [Esculetin],−0.7376,
CC(=O)Nc1c(I)c(C(=O)N[C@H]2C(O)O[C@H](CO)[C@@H](O)[C@@H]2O)c(I)c(N(C)C(C)=O)c1I (stereo partly drawn) [Metrizamide],1.421,
CN1CCOC(c2ccccc2)c2ccccc2C1 (stereo not drawn) [Nefopam hydrochloride],−0.3733,
Cc1c(-c2ccccc2)oc2c(C(=O)OCCN3CCCCC3)cccc2c1=O [Flavoxate hydrochloride],1.21,
CC[C@H](c1ccc(O)cc1)[C@@H](CC)c1ccc(O)cc1 [Hexestrol],0.1469,
CC(=O)[C@@]1(O)CC[C@H]2[C@@H]3C[C@H](C)C4=CC(=O)C=C[C@]4(C)[C@@]3(F)[C@@H](O)C[C@@]21C [Fluorometholone],−0.9741,
CCC1(c2ccccc2)NC(=O)N(C)C1=O (stereo not drawn) [Mephenytoin],−0.9817,
C[C@]12CC[C@H](O)C[C@H]1CC[C@@H]1[C@@H]2CC[C@]2(C)[C@@H](C3=CC(=O)OC3)CC[C@]12O [Digitoxigenin],,−2.008
